# In patent US11478011B2, “Nutritional compositions and infant formula for promoting de novo myealination” (NESTEC S.A., priority 2015, dated 2022):
# Tested on: Neural Progenitor Cell (NPCs) from E14 mouse neocortex
# Assay: Monolayer culture NPC proliferation assay
# Format: cell-based
# Conditions: low dose (Dose 1: 10 nM); 3 days; control 262
# Protocol: (§1) Media Compositions and Culture Methods 1) Neurobasal Complete Media Neurobasal media (LIFE TECHNOLOGIES CORP, #21103-049) 50× B27 supplement (LIFE TECHNOLOGIES CORP, #12587-010) 2 mM L-Glutamine (LIFE TECHNOLOGIES CORP, #25030-149) 1× Pen-Strep (LIFE TECHNOLOGIES CORP, #15140-122) 2) Neurobasal Media Complete with Growth Factors (GF) Above recipe with GF mix 1M Tris (MW 121.14, Fisher SCI BP152) Heparin (sigma H3149) BSA (Sigma A7030) DNAse, RNase, Protease free water (Fisher SCI AC327390010) EGF (GIBCO PHG0311) bFGF vial (GIBCO PHG0021) 3) Neurobasal Media No Choline (Life Technologies, Formulated Custom, No L-Glutamine, no phenol red) Note: complete and complete with GF made the same as above. Generation of Neural Progenitor Cell (NPCs) Libraries: dissociation of E14 mouse neocortex Reagents Needed: DPBS (1×)+10% Pen/Strep Neurobasal media/10% Pen/Strep/10× Hepes Procedure:
# E14 pup brains were harvested and placed in ice cold DPBS (1×)+10% Pen/Strep, then they were dissected using a dissecting microscope. From each pup, one brain hemisphere was placed in 2 ml of Neurobasal media/10% P/S/10× Hepes and another brain hemisphere was placed in another tube. […]
# EDU incorporation was measured using Click-iT® EdU Alexa Fluor® 555 Imaging Kit (Life technologies, #c10338). […]
row,Compound,"neuronal proliferation, DAPI"
1,Sphingomyelin,280

# Tested on: brain myelination (myelin water fraction) of children up to 5 years of age
# Assay: Correlation analysis between infant formula nutrient composition and brain myelination (mcDESPOT MRI myelin water fraction)
# Format: in vivo, human
# Conditions: formula-fed children up to 5 years; brain regions listed in the block; FIG. 1b-1p
# Protocol: MRI (Magnetic Resonance Imaging): MRI brain scans of infants and children between 0 and 5 years were acquired using a white matter imaging technique. This technique provides a quantitative measure, the Myelin Water Fraction (MWF), which is a surrogate marker of myelin content in the brain. When mapped as a function of time across early childhood, myelination trajectories can be generated.
# Infant formula composition: six infant formulas fed to infants participating in a study were analyzed for their composition/level of myelin-relevant nutrients.
# Infants included in this study were drawn from a larger longitudinal study of normal brain and behavioral development: the Brown University Assessment of Myelination and Behavior Across Maturation (BAMBAM). To focus on neurotypical development, children with known potential risk factors for learning, neurologic, or psychiatric disorders were specifically excluded during recruitment and enrollment. Thus, children with in utero alcohol or illicit substance exposure, premature (<37 weeks gestation) or multiple birth, fetal ultrasound abnormalities, complicated pregnancy (e.g., preeclampsia), APGAR scores <8, NICU admission, neurological disorder (e.g., head injury, epilepsy), psychiatric or developmental disorders in the infant, parents or siblings (including maternal depression requiring medication) were excluded. Ongoing screenings, such as the MCAT for autism, or CBCL for behavioral problems, were further used to remove enrolled children with clinically concerning behaviors or overt medical conditions (such as autism spectrum disorders).
# A combination of retrospective and prospective data were acquired from parents via detailed medical histories and parental interview on the type of infant formula used, percentage of breastfeeding to formula feeding, and length of exclusive breastfeeding. This information was updated at each study visit, which occurred approximately every 6 months for children under 2 years, and yearly for older children. Using this information, children were categorized into one of 2 groups: #1. Exclusively formula-fed; and #2. Exclusively breastfed for at least 90 days (3 months). Children who were fed a combination of breastmilk and formula within 3 months were excluded from our analysis. Infants within the exclusively formula-fed group were further sub-divided based on parental reports of the main infant formula used throughout the first 3 months. Main formula was defined as that given 90% of the time or more (in the case were parents used an alternate brand during vacation, for example).
# Using these criteria, 94 exclusively formula-fed infants and young children were selected into group #1. These included 13 children who received formula #2; 28 who received formula #5; 8 who received formula #3; 39 who received formula #4; 5 who received formula #1 and 1 who received formula #6. A sample of 52 exclusively breast-fed infants were also selected and matched to the over formula-fed group with regards to mean age, gestation duration, birth weight, male:female ratio, ethnicity ratio, maternal education, family size, and number of languages spoken in the home (in addition to English).
# Each infant was scanned using the mcDESPOT (multicomponent Driven Equilibrium Single Pulse Observation of T1 and T2) white matter imaging technique Deoni et al. (Magn. Reson. Med. 2008, 60:1372-1387), which provides a quantitative measure of the myelin water fraction (MWF)—a measure of myelin content—at each point throughout the brain. All infants were scanned during natural (i.e. non-sedated) sleep using acoustically-muffled mcDESPOT imaging protocols. Total imaging times ranged from 19 minutes for the youngest toddlers to 24 minutes for the older 4 year-old children.
row,Compound,association of nutrient with myelination (myelin water fraction) over time in the brain
1,"CCCCC/C=C\C/C=C\C/C=C\C/C=C\CCCC(=O)O [AA, arachidonic acid]",association with myelination (myelin water fraction) was observed over time in the brain
2,[Ca+2] [calcium],association with myelination (myelin water fraction) was observed over time in the brain
3,[Mg+2] [magnesium],association with myelination (myelin water fraction) was observed over time in the brain
4,[P] [phosphorus],association with myelination (myelin water fraction) was observed over time in the brain
5,[Zn] [zinc],association with myelination (myelin water fraction) was observed over time in the brain
6,Sphingomyelin,association with myelination (myelin water fraction) was observed over time in the brain
7,iron,association with myelination (myelin water fraction) was observed over time in the brain
8,phosphatidylcholine,association with myelination (myelin water fraction) was observed over time in the brain
9,phosphatidylinositol,association with myelination (myelin water fraction) was observed over time in the brain
10,vitamin B12,association with myelination (myelin water fraction) was observed over time in the brain

# Tested on: Neural Progenitor Cell (NPCs) from E14 mouse neocortex
# Assay: Neurosphere counts in 96-well plates
# Format: cell-based
# Conditions: Low dose (Dose 1: 10 nM); grown for 2 days; control 103
# Protocol: as §1
# E14 pup brains were harvested and placed in ice cold DPBS (1×)+10% Pen/Strep, then they were dissected using a dissecting microscope. From each pup, one brain hemisphere was placed in 2 ml of Neurobasal media/10% P/S/10× Hepes and another brain hemisphere was placed in another tube.
# The tissue from each tube was aseptically and manually dissociate into single cells, neurobasal complete medium was added and centrifuged at 130 G for 5 min. […]
row,Compound,"number of neurospheres, Average (Mean)"
1,Sphingomyelin,94
